In PubChem BioAssay (NCI) one finds TGI data, which are given here for 1 compound.

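Five compound concentrations were applied to cells in 96-well plates for 48 hours; endpoints were derived by simple linear interpolation of the resulting dose-response curve. TGI denotes the concentration required for complete inhibition of growth.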

This assay relates to P388/ADR leukemia. As to the kind of experiment: NCI tumour cell line growth inhibition, 48 h.

`C=C1C(=O)C[C@@]23CCC[C@@]12CC(OCOC)C3` (stereo partly specified) returned a TGI of 2.09 µM.
